The test system of this assay is NOD.hALOX12 mice. Briefly: Islet cell death and proliferation staining (TUNEL, H2A.X, PCNA) in NOD.hALOX12 mice.
[1] abbreviates: female NOD.hALOX12 mice, 4 weeks of treatment.
Where [2] appears, read: sheet Fig 4D, individual mice, listed as VLX.

Where “and” joins values, the source holds several entries; their conditions need not be identical. Equal values may be shown once.

Description: We, therefore, immunostained pancreatic sections for markers of cell death and proliferation in the islet.
Pancreatic tissues were fixed using 4% paraformaldehyde. After fixation, the tissues were embedded in paraffin and sectioned with a thickness of 5 μm. Three sections per mouse were used for analysis, with each section being spaced 100 μm apart. Tissue sections were immunostained with anti-insulin (ProteinTech, 15848-1-AP; 1:200), anti-glucagon (Abcam, ab92517; 1:200), anti–12-LOX (Thermo Fisher Scientific, PA5-26020; 1:200), anti–12/15-LOX (Abcam, ab80221; 1:200), anti-CD3 (Abcam, ab16669; 1:200), anti-F4/80 (Sigma-Aldrich, D2S9R; 1:150), anti-MAC2 (Thermo Fisher Scientific, EbioM3/38; 1:200), and anti-H2A.X (Cell Signaling Technology, 9718s; 1:200) primary antibodies followed by conjugated anti-rabbit Ig (Vector Laboratories) secondary antibody. A DAB (3,3′-diaminobenzedine) Peroxidase Substrate Kit from Vector Laboratories was used for detection. After immunostaining, the tissue sections were counterstained with hematoxylin (Sigma-Aldrich). Images were acquired using a BZ-X810 fluorescence microscope (Keyence) and β/α cell mass was quantified by insulin^+ or glucagon^+ area and whole pancreas area.
For immunofluorescent staining, pancreatic sections were stained with the following antibodies: anti-insulin (Dako, IR002; 1:4), anti-glucagon (Santa Cruz Biotechnology, sc514592; 1:50), anti-B220 (BioLegend, 03201; 1:100), anti-CD3 (Abcam, ab16669; 1:200), anti-PCNA (Santa Cruz Biotechnology, sc-7907; 1:100), anti–4-HNE (Abcam, ab46545; 1:200), and anti-GPx1 (Santa Cruz Biotechnology, sc-22145; 1:100). Highly cross-adsorbed Alexa Fluor secondary antibodies (Thermo Fisher Scientific) were used at a dilution of 1:500. Tissue sections were stained with DAPI (Thermo Fisher Scientific) to label cell nuclei. The Nikon A1 confocal microscopy was used to capture images. CellProfiler v4.1 software (https://cellprofiler.org/) was used for image analysis.
A TUNEL assay was used to determine β cell death in pancreatic islets. The assay was performed according to the protocol provided by the manufacturer (Abcam) and HRP-DAB chemistry was used for detection. Two sections, spaced 100 μm apart, were used for each mouse. Images were captured using a BZ-X810 fluorescence microscope system (Keyence). The number of TUNEL^+ cells was assessed manually per islet.

For `COc1cccc(CNc2ccc(S(=O)(=O)Nc3nc4ccccc4s3)cc2)c1O` [VLX-1005], under setting [1], the “Islet cell death (TUNEL, H2A.X staining) vs vehicle” value is reported as “decreased islet cell death” and the “β cell proliferation (PCNA immunostaining) vs vehicle” value is given as “decreased β cell proliferation”. Under setting [2], the H2Ax was 0.25 and 0.166 and 0 and 0.14; the PCNA is 1.4 and 1.2 and 0.9 and 1.83.

The values are drawn from publication PMC11665553, “12-Lipoxygenase inhibition delays onset of autoimmune diabetes in human gene replacement mice” (JCI Insight, 2024).
